Values belong to the compound of their own block, whether it stands above or below them.
What was measured:
[1] = target: T1, N-lysine methyltransferase SMYD2 (Homo sapiens, UniProt Q9NRG4); assay: Inhibition of FLAG-tagged SMYD2 (unknown origin) expressed in human U2OS cells mediated intracellular p53 methylation incubated for 24 hrs using p53 as substrate by immunofluorescence analysis; format: cell-based
[2] = tested on: KYSE-270; assay: Antitumor activity against human KYSE-270 cells assessed as inhibition of cell proliferation incubated for 3 to 7 days by CellTiter-Glo assay; format: functional, cell-based
[3] = tested on: KYSE-150 cell line; assay: Antitumor activity against human KYSE-150 cells assessed as inhibition of cell proliferation incubated for 3 to 7 days by CellTiter-Glo assay; format: functional, cell-based
[4] = Antitumor activity against human BC cells assessed as inhibition of cell proliferation incubated for 3 to 7 days by CellTiter-Glo assay; format: functional, cell-based
[5] = Antitumor activity against human HCC cells assessed as inhibition of cell proliferation incubated for 3 to 7 days by CellTiter-Glo assay; format: functional, cell-based
[6] = target: T1, N-lysine methyltransferase SMYD2; assay: Inhibition of human SMYD2 overexpressing human KYSE-150 cells assessed as SMYD2 assessed as reduction in BTF3 monomethylation by Western blot analysis; format: cell-based, KYSE-150 cell line

T1 sequence (Q9NRG4 whole entry): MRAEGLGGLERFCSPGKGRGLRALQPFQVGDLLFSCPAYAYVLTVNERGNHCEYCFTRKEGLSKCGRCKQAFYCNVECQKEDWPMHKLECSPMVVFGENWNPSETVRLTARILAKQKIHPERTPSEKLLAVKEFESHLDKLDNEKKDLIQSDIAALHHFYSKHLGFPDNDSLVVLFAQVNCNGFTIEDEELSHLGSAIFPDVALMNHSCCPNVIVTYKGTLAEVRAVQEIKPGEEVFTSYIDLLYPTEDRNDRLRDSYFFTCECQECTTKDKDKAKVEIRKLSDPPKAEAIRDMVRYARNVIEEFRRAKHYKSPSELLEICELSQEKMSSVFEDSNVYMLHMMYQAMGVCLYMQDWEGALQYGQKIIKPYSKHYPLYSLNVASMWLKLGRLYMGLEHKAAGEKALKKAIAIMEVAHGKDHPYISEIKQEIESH

IC50 [1]: < 100 µM
SMILES: O=C1COc2c(CCNCCN(C(=O)CCNCCc3ccc(Cl)c(Cl)c3)C3CCCCC3)ccc(O)c2N1

SMILES: Cc1cn(CCN2CCN(c3ccccc3-c3cc(C#N)cc(C(=O)NCCCN4CCCC4)c3)CC2)c2ccccc12
IC50 [2]: 1.5 µM
IC50 [3]: 1.5 µM
IC50 [4]: 1.5 µM
IC50 [5]: 1.5 µM

IC50 [6]: 0.0029 µM
SMILES: O=C(NC1CN(Cc2cnn(Cc3ccc(Cl)cc3)c2)C1)c1cn(C2CC2)nn1

From ChEMBL document CHEMBL5113510, “Protein Lysine Methyltransferase SMYD2: A Promising Small Molecule Target for Cancer Therapy” (J Med Chem, 2022)
